Test results: publication PMC3958483, “Fine Specificity and Molecular Competition in SLAM Family Receptor Signalling” (PLoS ONE, 2014)
Non-standard residues stand in square brackets, D forms with d. Residues, ends and D or L forms follow the SMILES beside them. *: point of attachment. Biotin = O=C1N[C@H]2[C@H](CS[C@H]2CCCCC(=O)*)N1; pY = N[C@@H](Cc1ccc(OP(=O)(O)O)cc1)C(=O)O

Tests used:
SHIP SH2 from SHIP-1 = target: T1, SHIP SH2 from SHIP-1 (Homo sapiens, UniProt Q92835); assay: SPR binding of SHIP SH2 domain to immobilised phosphopeptides; details: 37°C, equilibrium binding analysis
T1 construct: the single SH2 domain from SHIP-1; His-tag; made in house; host or cells: E. coli BL21(DE3)pLysS
T1 sequence (Q92835 5-101 limits assumed): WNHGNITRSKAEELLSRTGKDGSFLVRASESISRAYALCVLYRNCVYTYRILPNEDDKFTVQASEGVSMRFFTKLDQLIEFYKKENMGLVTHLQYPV
From the text: (§1) Biotinylated EAT-2 was produced by expression of full length human EAT-2 with a C-terminal BirA tag ([…]) in the E coli expression vector pTrcHisA. Constructs encoding the 6xHis-tagged tandem SH2 domains plus the SH3 domains of PLCγ1 (Swiss-Prot: P19174, aa 536–863) and PLCγ2 (Swiss-Prot: P16885, aa 519–838) were generated in pTrcHisA (5′ joining sequence with BglII site underlined: gag atc tcc translates as EIS). The molecular weight (MW) and theoretical extinction coefficients (EC) of recombinant PLCγ1 and PLCγ2 SH2-SH2-SH3 domains were PLCγ1; MW = 42531, EC = 63,830 M^−1 cm^−1 and PLCγ2; MW = 42415, EC = 67,270 M^−1 cm^−1.
Measurements of protein-protein affinity were performed on BIAcore 3000 and T200 systems using CM5 or biotin capture chips (GE Healthcare Ltd, UK). Streptavidin was coupled to CM5 sensor chips using standard NHS/EDC chemical linkage, followed by immobilization of biotinylated peptides. The levels of peptide immobilized were approximately 25 and 50 response units respectively of single and tandem tyrosine motifs to facilitate saturating binding and limitation of “bridging” [22], [45]. […] Equilibrium binding coefficients and dissociation and association rates were calculated using BIAevaluation and/or GraphPad Prism 5.4 software. […]

EAT-2 = target: T2, EAT-2 (Homo sapiens, UniProt O14796); assay: SPR binding of EAT-2 to immobilised phosphopeptides; details: 37°C, ten two-fold dilutions, top concentration 0.3 μM, one-site specific binding model, curve shown in Figure 2B, read-out: KD (Figure 2B)
T2 construct: His-tag; made in house; host or cells: E. coli BL21(DE3)pLysS
T2 sequence (O14796 1-132): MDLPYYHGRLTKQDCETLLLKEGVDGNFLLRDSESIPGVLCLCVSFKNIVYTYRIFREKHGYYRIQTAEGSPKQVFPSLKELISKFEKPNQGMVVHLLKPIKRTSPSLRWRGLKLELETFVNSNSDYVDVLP
From the text: as §1
Soluble recombinant proteins were produced in BL21(DE3)pLysS E. coli (Calbiochem) at 37°C in 2TY medium and induced at OD 600 = 0.6 with 0.1 mM IPTG for 4 h or in 2XYT auto-induction (Formedium) medium overnight. Bacterial pellets were resuspended in ∼0.1 volume 10 mM HEPES pH7.4, 150 mM NaCl and used immediately or stored at −20°C in 10 ml aliquots. His-tag mediated protein purification was performed on a Co^2+ or Ni^2+ column by standard protocols. […] Where applicable, proteins were stored frozen in 10–25 mM HEPES pH 7.4, 200–300 mM NaCl (pH 7.4).All proteins were purified by size exclusion chromatography immediately prior to SPR analysis.
Measurements of protein-protein affinity were performed on BIAcore 3000 and T200 systems using CM5 or biotin capture chips (GE Healthcare Ltd, UK). Streptavidin was coupled to CM5 sensor chips using standard NHS/EDC chemical linkage, followed by immobilization of biotinylated peptides. The levels of peptide immobilized were approximately 25 and 50 response units respectively of single and tandem tyrosine motifs to facilitate saturating binding and limitation of “bridging” [22], [45]. Purified recombinant proteins were passed over the immobilized peptides at a range of concentrations in HBS-EP buffer, 10 mM HEPES pH 7.4, 150 mM NaCl, 3.4 mM EDTA, 0.005% surfactant, P20. Equilibrium binding coefficients and dissociation and association rates were calculated using BIAevaluation and/or GraphPad Prism 5.4 software.
The specificities of their SH2 domains overlap, introducing the concept of competition between them for ITSMs in cells where they are co-expressed, including NK cells.

[1] = Pull-down with phosphorylated CD244 ITSM1 from NK cell lysates, LC-MS/MS; format: binding; details: human NK cell lysates; compared with control phosphopeptide SHIP-1 Y865
Protocol: For pull-down of associated proteins, streptavidin Sepharose (GE Healthcare) was pre-coated with saturating amounts of peptide or EAT-2. NK92 cells (4×10^8) were treated with 500 μM pervanadate for 15 minutes, then lysed in PBS, 1% Triton X-100, 1 mM sodium orthovanadate in the presence of mammalian protease inhibitor solution (Sigma). Lysates were pre-cleared by centrifugation, followed by incubation with streptavidin Sepharose. Peptide or EAT-2-coated streptavidin beads were incubated with NK92 lysates for 2 hours at 4°C with rotation. Beads were washed once with 15 ml ice cold PBS/1% (v/v) Triton X-100. Bound protein was eluted using 100 mM glycine-HCl pH 2.5.
Protein samples were prepared for mass spectrometry as described previously. Briefly, eluted proteins were spun onto the membranes of Vivacon 500 filters (10,000 MWCO – Sartorius). Membranes were washed once with PBS then proteins were denatured with 8 M urea, reduced with 10 mM DTT in 25 mM ammonium bicarbonate buffer, followed by alkylation with 50 mM iodoacetamide. Proteins were then digested overnight with trypsin. Tryptic peptides were then eluted from the membrane and analyzed on an Ultimate 3000 HPLC-coupled Orbitrap XL mass spectrometer. Proteins were identified by liquid chromatography-coupled tandem mass-spectrometry (LC-MS/MS). Raw data files were converted to mzXML format using ReADW (v. 4.2.1) and submitted to the Central Proteomics Facilities Pipeline for database comparison and peptide identification. Searching against the International Protein Index (IPI) human protein sequence database for protein identification, protein and peptide hits were statistically validated by applying a 1% false discovery rate (FDR) by searching against a concatenated target/decoy database. Datasets were searched with variable peptide modifications for phosphotyrosine, phosphoserine, phosphothreonine, oxidation of methionine and deamination.
Protein identification data were exported into ProteinCenter (v3.8.3013 – Thermo Fisher) for filtering and annotation. Results were filtered to remove any proteins with less than 3 unique peptides, less than 10 percent sequence coverage, or median protein probability scores less than 0.5. To establish sample specificity, any protein with at least 10-fold greater sequence coverage in one sample compared with the other was considered to be specific for that sample.
Similarly, differences in specificity of inhibitory SH2 domain containing proteins for ITSMs are relevant to understanding mechanisms of inhibition by ITSMs. We focused on CD244 ITSMs to establish general paradigms.

Row | Compound | binding of SHIP SH2 domain (SHIP SH2 from SHIP-1) | pull-down by CD244 ITSM1 [1] | further results
1 | CC[C@H](C)[C@H](NC(=O)[C@H](CCSC)NC(=O)[C@H](CO)NC(=O)[C@H](Cc1ccc(OP(=O)(O)O)cc1)NC(=O)[C@@H](NC(=O)[C@@H](NC(=O)[C@H](CO)NC(=O)CNC(=O)CNC(=O)CCCC[C@@H]1SC[C@@H]2NC(=O)N[C@@H]21)[C@@H](C)O)[C@@H](C)CC)C(=O)N[C@@H](CCC(N)=O)C(=O)N[C@@H](CO)C(=O)O [CD244 ITSM2] | preference of SHIP SH2 domain | – | –
2 | CC[C@H](C)[C@H](NC(=O)[C@H](CC(C)C)NC(=O)[C@H](CO)NC(=O)[C@H](Cc1ccc(OP(=O)(O)O)cc1)NC(=O)[C@H](CC(C)C)NC(=O)[C@@H](NC(=O)[C@H](Cc1ccc(O)cc1)NC(=O)[C@H](C)NC(=O)[C@@H]1CCCN1C(=O)CCCC[C@@H]1SC[C@@H]2NC(=O)N[C@@H]21)[C@@H](C)O)C(=O)N[C@@H](CCC(N)=O)C(=O)N1CCC[C@H]1C(=O)O [CD244 ITSM3] (Biotin-PAYTL[pY]SLIQP-OH; C-terminus assumed) | preference of SHIP SH2 domain | – | –
3 | CC[C@H](C)[C@H](NC(=O)[C@H](CCC(=O)O)NC(=O)[C@@H](NC(=O)[C@@H](NC(=O)[C@H](CO)NC(=O)[C@H](Cc1ccc(OP(=O)(O)O)cc1)NC(=O)[C@@H](NC(=O)[C@@H](NC(=O)[C@H](CC(N)=O)NC(=O)[C@H](C)NC(=O)[C@@H]1CCCN1C(=O)CCCC[C@@H]1SC[C@@H]2NC(=O)N[C@@H]21)[C@@H](C)O)C(C)C)[C@@H](C)O)C(C)C)C(=O)O [CRACC ITSM2] (Biotin-PANTV[pY]STVEI-OH) | – | – | Kd (EAT-2): 1 nM
4 | Growth factor receptor-bound protein 2 (GRB2): SH2 domain containing protein pulled down by CD244 ITSM1 | – | pulled down by the ITSM peptide | –
5 | SHP-1: SH2 domain containing phosphatase | – | pulled down by the ITSM peptide | –
6 | SHP-2: SH2 domain containing tyrosine phosphatase | – | pulled down by the ITSM peptide | –
